Source: patent US20070009563A1, “PROCESS FOR COATING FIBER OR FABRIC WITH INSECTICIDE USING A TEMPERATURE OF 150°C-190°C FOR DRYING” (priority 2005, published 2007)

What was measured:
[1] = Quantity of deltamethrin on mosquito net fabric after drying at various temperatures; format: physicochemical; settings: polyester net coated at 55 mg/m^2
Procedure: High temperatures in the range of 150° C.-190° C. are used in the process of fabric drying according to the present invention to create fiber stability and strengthen chemicals used for stabilizing that fiber in order to make the insecticide adhere to the fiber. However, this temperature range affects the insecticide degradation. For example, coating of a polyester mosquito net with deltamethrin requires a deltamethrin concentration of 55 mg/m^2. The material is then dried at various temperatures using the same length of time for drying.
The ratio of deltamethrin degradation is also affected by the length of time for drying.

[2] = Quantity of deltamethrin on mosquito net fabric before and after washing (WHO washing procedure standard); format: physicochemical; settings: for Deltamethrin on the fabric, After Washing 5 Times: after 5 washes; for Deltamethrin on the fabric, After Washing 10 Times: after 10 washes; for Deltamethrin on the fabric, After Washing 15 Times: after 15 washes; for Deltamethrin on the fabric, After Washing 20 Times: after 20 washes
Text: In addition, the temperatures used for drying the fabric in the manufacturing process affect washing resistance. That is, the fabric which is dried at higher temperature can resist washing better than the fabric that is dried at lower temperature.

mosquitoes = experiment: Efficiency test for mosquito net dipped in insecticide: 3 minutes contact, knock down and mortality; format: in vivo; settings: for % KD, After Washing 5 Times / % mort., After Washing 5 Times: after 5 washes; for % KD, After Washing 5 Times / % KD, After Washing 10 Times / % KD, After Washing 15 Times / % KD, After Washing 20 Times / % KD, Before Washing: knock down after 60 minutes; for % mort., After Washing 5 Times / % mort., After Washing 10 Times / % mort., After Washing 15 Times / % mort., After Washing 20 Times / % mort., Before Washing: mortality after 24 hours; for % KD, After Washing 10 Times / % mort., After Washing 10 Times: after 10 washes; for % KD, After Washing 15 Times / % mort., After Washing 15 Times: after 15 washes; for % KD, After Washing 20 Times / % mort., After Washing 20 Times: after 20 washes
Procedure: The efficiency test for mosquito net dipped in insecticide/insect repellent is done by letting mosquitoes rest on the mosquito net for 3 minutes and then catching the mosquitoes, placing them in a clean container, and observing them to see which of the following conditions apply:
1. % Knock down (% KD): the number of mosquitoes that cannot move after 60 minutes, in some embodiments, must be more than 80%.
2. Mortality (% mort.): the mortality rate of mosquitoes after 24 hours, in some embodiments, must be more than 95%.

insects = settings: with small dosages; cited from earlier work

## CC1(C)[C@H](C(=O)O[C@H](C#N)c2cccc(Oc3ccccc3)c2)[C@@H]1C=C(Br)Br [deltamethrin, Deltamethrin]
[1]; drying temperature 150 °C
  Deltamethrin on the fabric of mosquito net after drying: 55 mg/m^2
[1]; drying temperature 160 °C
  Deltamethrin on the fabric of mosquito net after drying: 55 mg/m^2
[1]; drying temperature 170 °C
  Deltamethrin on the fabric of mosquito net after drying: 55 mg/m^2
[1]; drying temperature 180 °C
  Deltamethrin on the fabric of mosquito net after drying: 37 mg/m^2
[1]; drying temperature 190 °C
  Deltamethrin on the fabric of mosquito net after drying: 25 mg/m^2
[2]; drying temperature 150 °C
  Deltamethrin on the fabric, After Washing 5 Times: 40 mg/m^2
  Deltamethrin on the fabric, After Washing 10 Times: 32 mg/m^2
  Deltamethrin on the fabric, After Washing 15 Times: 16 mg/m^2
  Deltamethrin on the fabric, After Washing 20 Times: 10 mg/m^2
  Deltamethrin on the fabric, Before Washing: 55 mg/m^2
[2]; drying temperature 160 °C
  Deltamethrin on the fabric, After Washing 5 Times: 42 mg/m^2
  Deltamethrin on the fabric, After Washing 10 Times: 36 mg/m^2
  Deltamethrin on the fabric, After Washing 15 Times: 19 mg/m^2
  Deltamethrin on the fabric, After Washing 20 Times: 12 mg/m^2
  Deltamethrin on the fabric, Before Washing: 55 mg/m^2
[2]; drying temperature 170 °C
  Deltamethrin on the fabric, After Washing 5 Times: 44 mg/m^2
  Deltamethrin on the fabric, After Washing 10 Times: 38 mg/m^2
  Deltamethrin on the fabric, After Washing 15 Times: 22 mg/m^2
  Deltamethrin on the fabric, After Washing 20 Times: 16 mg/m^2
  Deltamethrin on the fabric, Before Washing: 55 mg/m^2
[2]; drying temperature 180 °C
  Deltamethrin on the fabric, After Washing 5 Times: 26 mg/m^2
  Deltamethrin on the fabric, After Washing 10 Times: 20 mg/m^2
  Deltamethrin on the fabric, After Washing 15 Times: 16 mg/m^2
  Deltamethrin on the fabric, After Washing 20 Times: 4 mg/m^2
  Deltamethrin on the fabric, Before Washing: 37 mg/m^2
[2]; drying temperature 190 °C
  Deltamethrin on the fabric, After Washing 5 Times: 19 mg/m^2
  Deltamethrin on the fabric, After Washing 10 Times: 15 mg/m^2
  Deltamethrin on the fabric, After Washing 15 Times: 8 mg/m^2
  Deltamethrin on the fabric, After Washing 20 Times: 4 mg/m^2
  Deltamethrin on the fabric, Before Washing: 25 mg/m^2
mosquitoes; drying temperature 150 °C
  % KD, After Washing 5 Times: 100%
  % mort., After Washing 5 Times: 100%
  % KD, After Washing 10 Times: 100%
  % mort., After Washing 10 Times: 100%
  % KD, After Washing 15 Times: 100%
  % mort., After Washing 15 Times: 90%
  % KD, After Washing 20 Times: 95%
  % mort., After Washing 20 Times: 82%
  % KD, Before Washing: 100%
  % mort., Before Washing: 100%
mosquitoes; drying temperature 160 °C
  % KD, After Washing 5 Times: 100%
  % mort., After Washing 5 Times: 100%
  % KD, After Washing 10 Times: 100%
  % mort., After Washing 10 Times: 96%
  % KD, After Washing 15 Times: 100%
  % mort., After Washing 15 Times: 90%
  % KD, After Washing 20 Times: 96%
  % mort., After Washing 20 Times: 80%
  % KD, Before Washing: 100%
  % mort., Before Washing: 100%
mosquitoes; drying temperature 170 °C
  % KD, After Washing 5 Times: 100%
  % mort., After Washing 5 Times: 100%
  % KD, After Washing 10 Times: 100%
  % mort., After Washing 10 Times: 100%
  % KD, After Washing 15 Times: 100%
  % mort., After Washing 15 Times: 90%
  % KD, After Washing 20 Times: 95%
  % mort., After Washing 20 Times: 82%
  % KD, Before Washing: 100%
  % mort., Before Washing: 100%
mosquitoes; drying temperature 180 °C
  % KD, After Washing 5 Times: 100%
  % mort., After Washing 5 Times: 82%
  % KD, After Washing 10 Times: 95%
  % mort., After Washing 10 Times: 62%
  % KD, After Washing 15 Times: 82%
  % mort., After Washing 15 Times: 22%
  % KD, After Washing 20 Times: 84%
  % mort., After Washing 20 Times: 0%
  % KD, Before Washing: 100%
  % mort., Before Washing: 98%
mosquitoes; drying temperature 190 °C
  % KD, After Washing 5 Times: 100%
  % mort., After Washing 5 Times: 68%
  % KD, After Washing 10 Times: 95%
  % mort., After Washing 10 Times: 18%
  % KD, After Washing 15 Times: 44%
  % mort., After Washing 15 Times: 0%
  % KD, After Washing 20 Times: 16%
  % mort., After Washing 20 Times: 0%
  % KD, Before Washing: 100%
  % mort., Before Washing: 96%
insects
  effectiveness relative to permethrin: more than 30 times
